What all share (assay type): cell-based
Assay [1] has as its system transiently suspended HT-29 cells. Description: Apoptosis (annexin V) of transiently suspended cells allowed to readhere. Particulars: HT-29; various concentrations; 4 h; compared with BAY 11-7085. As to the method:
HT-29 cells that were either transiently suspended with trypsin-EDTA or adherent for three days, were treated at time zero with DMSO or 10-100 μM BAY 11-7085. The percent of apoptotic cells was determined using the annexin V flow cytometry assay and graphed versus the dose of BAY 11-7085. […] The cells were fixed and immunostained with an NF-κB p65 subunit monoclonal antibody.
The transiently suspended cells were lysed and allowed to bind to DNA oligonucleotides, containing the NF-κB consensus binding site, that were immobilized to 96-well plates. NF-κB protein bound to the oligonucleotides was detected by an antibody to the p65 subunit that only recognized p65 that is bound to DNA. The positive control was HeLa cells that were stimulated with TNFα A control was performed using excess free NF-κB oligonucleotides (Competitor). […] NF-κB binding activity was determined by the TransAM assay as in FIG. 5A. […] The data shown represent typical results of three separate experiments. […] An immunoblot for COX-2 was performed.
The percentage of apoptotic cells was determined using the annexin V assay. The data points represent the averages of three experiments; bars, ±SE. E. DLD-1 and F. HT-29 cells were transduced with an adenovirus containing the IκB super-repressor construct. After 3 days, the cells were transiently suspended and allowed to readhere in the presence of subapoptotic concentrations of BAY 11-7085 or DMSO (vehicle) for 8 h. The data are expressed as fractions of cells surviving compared with the controls (no adenovirus) and were quantitatively determined by staining the remaining adherent cells with crystal violet.
(§1) Single cell suspensions were plated at 100,000 cells per well in 24-well plates in media containing DMSO, BAY 11-7082, BAY 11-7085, or MG-132 for 8-24 hours in an incubator. Alternatively, DMSO, BAY 11-7082, BAY 11-7085, or MG-132 were added to cells that were confluent and adherent for several days. The nonadherent cells were aspirated off with the media and spun for 3 minutes at 2,000 rpm in 15 ml polypropylene tubes. The adherent cells were washed twice with PBS, dispersed in trypsin, and spun down for 3 minutes at 2,000 rpm in 15 ml polypropylene tubes. The nonadherent and adherent cells were resuspended in 1× binding buffer (10 mM HEPES/NaOH, pH 7.4, 140 mM NaCl, and 2.5 mM CaCl2) to a final concentration of 10^6 cells/ml. 100 μl of the cell solution were transferred to a 5 ml culture tube and incubated with 5 μl of annexin V-FITC-conjugated monoclonal antibody (Pharmingen) and 10 μl of propidium iodide (from a 50 μg/ml stock solution made in PBS) in the dark at 25° C. for 15 minutes. 400 μl of binding buffer was added to each tube and the cells were analyzed by flow cytometry immediately. The percent of apoptosis was determined as the percent of annexin V-positive, propidium iodide-negative cells of the total cells counted.
Various concentrations of BAY 11-7085 were added to HT-29 cells that were transiently suspended in trypsin-PBS for approximately 15 minutes before replating. The transiently suspended cells were quickly allowed to readhere in order to prevent anoikis. Alternatively, BAY 11-7085 was added to adherent HT-29 cell monolayers.

Assay [2] relates to cleaved PARP in HCT-116 cells. Nature of the assay: Immunoblot for cleaved PARP. Particulars: 20 μM, 24 hours. As to the method:
The data points represent the average percent of annexin V-positive, propidium iodide-negative cells (of the total cells counted) from triplicate experiments. The error bars represent the standard error of the means. […] The results shown are a graphic representation of individual flow cytometry results expressed as the percentage of cells that were annexin V-positive of those that excluded propidium iodide. […] An immunoblot of the lysates for cleaved PARP was performed. Each lane represents equal total protein concentrations. […] The cells were allowed to adhere to plastic dishes for 1 hour after which they were washed gently in PBS and stained with crystal violet. The crystal violet stained cells were solubilized in deoxycholate and the absorbance detected in a spectrophotometer at 590 nm. The adherent cells were expressed as a fraction of the controls Each data point represents the average of triplicate experiments and the error bars the standard errors of the means. […]
(§2) For immunodetection, the blocked blots were probed with primary antibody for 2 hours at 4° C. on a rocker. […] Alkaline phosphatase was detected by a colorimetric reaction using a BCIP (5-Bromo-4-Chloro-3-Indolyl phosphate)/NBT (Nitroblue tetrazolium) kit (Zymed).

In assay [3] the test system is cleaved PARP in HT-29 cells. Description: Immunoblot for cleaved PARP. Particulars: 20 μM, 8 h. As to the method: The cells were washed twice in ice cold PBS and then lysed in 4° C. lysis buffer (50 mM HEPES, 150 mM NaCl, 1.5 mM MgCl2, 1 mM EGTA, 100 mM NaF, 10 mM Na2PO4, 1 mM Na3VO4, 10% glycerol, 1% Triton X-100, and 1 μg/ml each of aprotinin, leupeptin, chymostatin, pepstatin) and clarified at 12,000 rpm at 4° C. for 15 minutes. The lysates were normalized for total protein concentration. Aliquots of the lysates were then mixed 1:1 in sample buffer (125 mM Tris-HCl (pH 6.8), 20% glycerol. 4% sodium dodecyl sulfate, 2% beta-mercaptoethanol, 10 μg/ml bromophenol blue) and boiled for 3 minutes. The samples were loaded onto SDS-PAGE gels (7.5 or 10% acrylamide). […]
as §2
It was confirmed in HT-29 cells that were treated with increasing concentrations of BAY 11-7085 for 24 h. After separating the HT-29 cells that remained adherent and those that became nonadherent after BAY 11-7085 treatment, the percentage of apoptotic cells was determined for each group. […]

Another assay concerns adherent HT-29 cells. Nature of the assay: Apoptosis assay (annexin V-FITC / propidium iodide flow cytometry), adherent cells. As to the method: The data points represent the average percent of annexin V-positive, propidium iodide-negative cells (of the total cells counted) from triplicate experiments. The error bars represent the standard error of the means. […] The results shown are a graphic representation of individual flow cytometry results expressed as the percentage of cells that were annexin V-positive of those that excluded propidium iodide. […] An immunoblot of the lysates for cleaved PARP was performed. Each lane represents equal total protein concentrations. […] The cells were allowed to adhere to plastic dishes for 1 hour after which they were washed gently in PBS and stained with crystal violet. The crystal violet stained cells were solubilized in deoxycholate and the absorbance detected in a spectrophotometer at 590 nm. The adherent cells were expressed as a fraction of the controls Each data point represents the average of triplicate experiments and the error bars the standard errors of the means.
as §1

Assay [4] deals with HCT-116 colon cancer cell line. Description: Cell proliferation assay (crystal violet, 590 nm). The settings on record: 10 and 50 μg/ml, after several days of treatment. The procedure:
(§3) DLD-1, HCT-116, and HT-29 colon cancer cell lines were obtained from the ATCC collection and were cultured in Dulbecco's Modification of Eagle's Medium supplemented with 10% fetal bovine serum, glutamine, penicillin, and streptomycin. 293 cells stably transfected with COX-2 (293-COX-2) under the control of a ponasterone sensitive promoter were cultured in Dulbecco's Modification of Eagle's Medium supplemented with 10% fetal bovine serum, 400 μg/ml of zeocin, 400 μg/ml of G418, glutamine, penicillin, and streptomycin. For induction of COX-2 protein expression, 293-COX-2 cells were cultured for 48 hours in media supplemented with 1 μg/ml of ponasterone. All cells were cultured at 37° C. in a humidified incubator with a 5% CO2 atmosphere.
(§4) For the cell proliferation assay, cells were dispersed and plated at 40,000 cells/well in 96-well dishes. At various days in culture, the cells were gently washed twice with 100 μl/well of ice-cold blocking buffer (1% radioimmunoassay grade BSA in PBS) and twice with 100 μl/well of ice-cold PBS. The cells were fixed for 10 min in 100% ice-cold methanol (100 μl/well), then allowed to air-dry. The cells were stained with 100μl/well of 0.1% crystal violet in H2O for 10 minutes, then washed gently four times with dd H20 and four times with PBS. The plates were then air-dried completely. The stained cells were then solubilized in 1% sodium deoxycholate, and the plates read at 590 nm in a spectrophotometer. The absorption at 590 nm is proportional to the number of attached cells.

Assay [5] concerns DLD-1 colon cancer cell line. Nature of the assay: Cell proliferation assay (crystal violet, 590 nm). Particulars: 10 and 50 μg/ml, after several days of treatment. As to the method:
as §3, §4

The test system of assay [6] is HT-29 colon cancer cell line. Nature of the assay: Cell proliferation assay (crystal violet, 590 nm). The settings on record: 10 and 50 μg/ml, after several days of treatment. The procedure:
as §3, §4

“Also recorded” adds a separate entry of the source. Peptide text beside a SMILES is read from it. * marks the point of attachment. Cbz = O=C(OCc1ccccc1)*

For `CC(C)C[C@@H](C=O)NC(=O)[C@H](CC(C)C)NC(=O)[C@H](CC(C)C)NC(=O)OCc1ccccc1` [MG-132, N-[(phenylmethoxy)carbonyl]-L-leucyl-N-[(1S)-1-formyl-3-methylbutyl]-L-leucinamide] (Cbz-Leu-Leu-Leu-aldehyde), in assay [1], the “induction of apoptosis during readhesion” value was “more potently induced apoptosis”. Moreover, in assay [2], the “cleaved PARP in cells that remained adherent” value is listed as “only a small increase in cleaved PARP” and the “cleaved PARP in the non-adherent cells” value is on record as “large increase in cleaved PARP”. Moreover, in assay [3], the “cleaved PARP in cells that remained adherent” value is “only a small increase in cleaved PARP” and the “cleaved PARP in the nonadherent cells” value was “large increase in cleaved PARP”. For the same compound, the “level of apoptosis (annexin V-positive, propidium iodide-negative cells)” value in the assay on adherent HT-29 cells (adherent HT-29, doses up to 20 μM (MG-132 20 μM), 24 hours) is listed as “relatively greater for MG-132 than BAY 11-7085; also recorded: caused a greater increase in apoptosis”.
For `S=C(S)N1CCCC1` [PDTC, pyrrolidine dithiocarbamate], the “induction of apoptosis during readhesion” value in assay [1] was “caused apoptosis of HT-29 cells during readhesion”.
For “cA2: antagonistic and chimeric TNFα monoclonal antibody purchased from the clinical pharmacy; inhibits TNFα binding to TNFα receptors”, the “inhibition of colon cancer cell proliferation” value in assay [4], in assay [5] and in assay [6] was “significant inhibition” each time. In addition, the “effect of cA2 pretreatment on BAY 11-7085-induced apoptosis” value with adherent HT-29 cells (HT-29, 50 μg/ml cA2 for 48 hours, then 20 μM BAY 11-7085 for 24 hours) is given as “did not diminish BAY 11-7085-induced apoptosis”.

The record behind these values is patent US7989495B2, “Compositions and methods for inhibiting NF-κB mediated tumorigenicity and adhesion dependent survival of cancer cells” (University of Utah Research Foundation, priority 2002, dated 2011).
